For one test, the species on record is Rattus norvegicus. As to the kind of experiment: Ability to inhibit high-affinity uptake of [3H]DA into striatal nerve endings (synaptosomes). Type of test: functional. As to conditions: Brain.
The target of test [1] is Sodium-dependent serotonin transporter (Rattus norvegicus, UniProt P31652). As to the kind of experiment: Ability to inhibit binding of [3H]paroxetine to Serotonin transporter in rat caudate putamen. Type of test: tissue-based.
Test [2] deals with Sodium-dependent dopamine transporter (Rattus norvegicus, UniProt P23977). As to the kind of experiment: Ability to inhibit binding of [3H]WIN-35428 to dopamine transporter in rat caudate putamen. In kind it is tissue-based.
Sodium-dependent dopamine transporter, sequence (P23977 whole entry): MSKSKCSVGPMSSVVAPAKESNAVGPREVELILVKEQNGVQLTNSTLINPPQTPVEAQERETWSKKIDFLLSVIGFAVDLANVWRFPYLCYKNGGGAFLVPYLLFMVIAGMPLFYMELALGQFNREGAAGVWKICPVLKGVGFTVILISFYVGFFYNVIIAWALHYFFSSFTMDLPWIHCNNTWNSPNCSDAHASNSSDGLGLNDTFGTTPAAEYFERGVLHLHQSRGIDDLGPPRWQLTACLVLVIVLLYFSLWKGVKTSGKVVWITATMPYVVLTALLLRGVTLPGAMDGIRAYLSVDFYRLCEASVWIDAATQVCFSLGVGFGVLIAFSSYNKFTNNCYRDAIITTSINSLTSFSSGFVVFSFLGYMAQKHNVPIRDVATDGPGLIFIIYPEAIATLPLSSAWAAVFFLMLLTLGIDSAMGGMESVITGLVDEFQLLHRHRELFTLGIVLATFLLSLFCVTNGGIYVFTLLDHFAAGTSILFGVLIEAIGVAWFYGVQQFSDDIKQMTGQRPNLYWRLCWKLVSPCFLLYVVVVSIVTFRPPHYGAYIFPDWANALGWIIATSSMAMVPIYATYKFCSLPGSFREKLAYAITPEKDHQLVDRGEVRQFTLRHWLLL

Sodium-dependent serotonin transporter, sequence (P31652 whole entry): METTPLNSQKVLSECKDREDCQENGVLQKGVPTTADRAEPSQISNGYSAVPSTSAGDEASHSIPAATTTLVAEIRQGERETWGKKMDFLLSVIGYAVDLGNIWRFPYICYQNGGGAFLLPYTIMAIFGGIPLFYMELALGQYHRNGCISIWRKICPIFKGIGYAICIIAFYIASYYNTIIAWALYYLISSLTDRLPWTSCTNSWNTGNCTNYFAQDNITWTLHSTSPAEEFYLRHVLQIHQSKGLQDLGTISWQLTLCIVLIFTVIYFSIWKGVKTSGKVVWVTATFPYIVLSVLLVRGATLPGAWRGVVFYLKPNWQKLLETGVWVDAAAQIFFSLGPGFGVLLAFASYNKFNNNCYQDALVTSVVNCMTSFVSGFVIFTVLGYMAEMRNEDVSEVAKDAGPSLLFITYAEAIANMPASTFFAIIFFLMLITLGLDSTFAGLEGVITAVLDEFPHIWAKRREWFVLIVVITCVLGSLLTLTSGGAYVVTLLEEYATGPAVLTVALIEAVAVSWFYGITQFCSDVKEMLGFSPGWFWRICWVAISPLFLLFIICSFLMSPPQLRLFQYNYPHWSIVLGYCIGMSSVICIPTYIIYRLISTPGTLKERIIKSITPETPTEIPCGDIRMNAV

In the case of `CO[C@H]1CC2C[C@H](OC(c3ccccc3)c3ccccc3)CC1N2C` (mixture of isomers), the IC50 in the test filed under Rattus norvegicus was 2280 nM; in test [1] it was > 100000 nM; in test [2], 650 nM.

For the compound `COC(=O)[C@@H]1C2CC[C@@H](C[C@@H]1OC(=O)c1ccccc1)N2C` (single isomer, unassigned) [COCAINE], in the test listed under Rattus norvegicus, the midpoint of inhibition, the IC50, lay at 208 nM.

On to `CO[C@@H]1CC2C[C@@H](OC(c3ccc(F)cc3)c3ccc(F)cc3)CC1N2C` (stereo partly drawn), for which the IC50 in the test listed under Rattus norvegicus is 104 nM; in test [1], > 100000 nM; in test [2], 25 nM.

Take `CO[C@H]1CC2C[C@H](OC(c3ccc(F)cc3)c3ccc(F)cc3)CC1N2C` (stereo partly drawn): the half-inhibitory concentration (IC50) was 165 nM in the test listed under Rattus norvegicus, > 100000 nM in test [1] and 95 nM in test [2].

Turning to `c1ccc(C(O[C@H]2C[C@H]3CC[C@@H](C2)O3)c2ccccc2)cc1`, the 50% inhibitory concentration (IC50) in test [2] was > 10000 nM.

For the compound `Fc1ccc(C(O[C@H]2C[C@H]3CC[C@@H](C2)O3)c2ccc(F)cc2)cc1`, in test [2], the IC50 was 2000 nM.

Regarding `CO[C@H]1CC2C[C@H](OC(c3ccccc3)c3ccc(Cl)cc3)CC1N2C` (stereo partly drawn), the 50% inhibitory concentration (IC50) was 519 nM in the test filed under Rattus norvegicus, > 100000 nM in test [1] and 750 nM in test [2].

Regarding `CO[C@@H]1CC2C[C@@H](OC(c3ccccc3)c3ccc(Cl)cc3)CC1N2C` (stereo partly drawn), the IC50 in the test listed under Rattus norvegicus is 179 nM; in test [1], > 100000 nM; in test [2] it was 32 nM.

In general, IC50 refers to the concentration that inhibits the measured activity by half. Read a low IC50 as greater potency.
